In patent US9663530B2, “5-oxa-2-azabicyclo[2.2.2]OCTAN-4-yl and 5-oxa-2-azabicyclo[2.2.1]heptan-4-yl derivatives” (Hoffmann-La Roche Inc., priority 2014, dated 2017) one finds Ki data, which are given here for 22 compounds.

One experiment deals with rat TAAR1 (Rattus norvegicus (Rat), UniProt Q923Y9). Briefly: Radioligand binding assay on rat TAAR1. To be noted: rat TAAR1 (second value of the cell); membranes of HEK-293 cells stably expressing rat TAAR1; read-out: Ki (μM) mouse/rat. In outline: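 Membranes from HEK293 cells stably expressing rat TAAR1 were incubated 1 h at 4 °C, in duplicate, with the tritiated oxazol-2-ylamine radioligand added at 3.3×Kd (Kd set per membrane batch by saturation). Buffer was 20 mM HEPES-NaOH pH 7.4, 10 mM MgCl2, 2 mM CaCl2; filtration and scintillation counting followed. […]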
rat TAAR1, sequence (Q923Y9 whole entry): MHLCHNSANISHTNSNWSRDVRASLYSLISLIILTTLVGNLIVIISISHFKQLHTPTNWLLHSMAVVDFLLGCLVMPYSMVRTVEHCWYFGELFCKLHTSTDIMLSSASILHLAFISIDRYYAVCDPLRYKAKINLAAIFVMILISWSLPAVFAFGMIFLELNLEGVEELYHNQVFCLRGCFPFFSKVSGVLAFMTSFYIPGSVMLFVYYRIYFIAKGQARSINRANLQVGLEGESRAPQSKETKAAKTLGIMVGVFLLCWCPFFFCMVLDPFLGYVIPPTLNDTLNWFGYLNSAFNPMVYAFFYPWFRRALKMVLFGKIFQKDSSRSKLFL

The next experiment addresses mouse TAAR1 (Mus musculus (Mouse), UniProt Q923Y8). Description: Radioligand binding assay on mouse TAAR1. To be noted: mouse TAAR1 (first value of the cell); membranes of HEK-293 cells stably expressing mouse TAAR1; read-out: Ki (μM) mouse/rat.

mouse TAAR1, sequence (Q923Y8 whole entry): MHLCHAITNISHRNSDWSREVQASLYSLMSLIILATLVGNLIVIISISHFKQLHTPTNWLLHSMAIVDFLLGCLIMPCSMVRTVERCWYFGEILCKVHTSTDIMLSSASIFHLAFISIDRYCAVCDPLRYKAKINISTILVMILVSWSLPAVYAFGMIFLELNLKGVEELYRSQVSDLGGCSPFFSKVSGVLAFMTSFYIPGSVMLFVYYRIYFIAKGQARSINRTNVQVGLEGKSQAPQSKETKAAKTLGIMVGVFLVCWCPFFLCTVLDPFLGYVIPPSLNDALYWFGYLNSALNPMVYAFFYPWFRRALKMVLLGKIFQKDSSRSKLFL

As for `Clc1ccc(Nc2ccc([C@@]34CN[C@@H](CO3)C4)cc2)nc1` [Example 20, 5-Chloro-N-[4-[(1R,4S)-5-oxa-2-azabicyclo[2.2.1]heptan-4-yl]phenyl]pyridin-2-amine], the Ki at rat TAAR1 came to 1.78 µM; on mouse TAAR1, 0.0062 µM.

Regarding `CC(C)c1cc(C(=O)Nc2ccc(C[C@@]34CN[C@@H](CO3)C4)cc2)[nH]n1` [Example 52, 3-Isopropyl-N-[4-[[(1R,4R)-5-oxa-2-azabicyclo[2.2.1]heptan-4-yl]methyl]phenyl]-1H-pyrazole-5-carboxamide], the Ki at rat TAAR1 was found to be 1.16 µM; on mouse TAAR1, 0.295 µM.

In the case of `O=C(Nc1ccc([C@]23CN[C@H](CO2)C3)cc1)c1cccc(Cl)c1` [Example 59, 3-Chloro-N-[4-[(1S,4R)-5-oxa-2-azabicyclo[2.2.1]heptan-4-yl]phenyl]benzamide], the Ki at rat TAAR1 is 0.0774 µM; on mouse TAAR1 it was 0.0054 µM.

As to `O=C(Nc1ccc(C[C@@]23CN[C@@H](CO2)C3)cc1)c1[nH]nc(C2CC2)c1Cl` [Example 48, 4-Chloro-3-cyclopropyl-N-[4-[[(1R,4R)-5-oxa-2-azabicyclo[2.2.1]heptan-4-yl]methyl]phenyl]-1H-pyrazole-5-carboxamide], the Ki was 0.112 µM on rat TAAR1 and 0.0147 µM on mouse TAAR1.

As for `CCOc1ccc(C(=O)Nc2ccc(C34CCC(CO3)NC4)cc2)cc1` (centres unmarked) [Example 53, 4-Ethoxy-N-[4-(5-oxa-2-azabicyclo[2.2.2]octan-4-yl)phenyl]benzamide], the Ki is 1.98 µM at rat TAAR1 and 0.0156 µM on mouse TAAR1.

In the case of `O=C(Nc1ccc(C[C@]23CN[C@H](CO2)C3)cc1)Nc1ccccc1Cl` [Example 9, 1-(2-Chlorophenyl)-3-[4-[[(1S,4S)-5-oxa-2-azabicyclo[2.2.1]heptan-4-yl]methyl]phenyl]urea], the Ki was 0.53 µM at rat TAAR1 and 1.63 µM at mouse TAAR1.

Regarding `O=C(Nc1ccc([C@@]23CN[C@@H](CO2)C3)cc1)c1ccc(Cl)cc1` [Example 54, 4-Chloro-N-[4-[(1R,4S)-5-oxa-2-azabicyclo[2.2.1]heptan-4-yl]phenyl]benzamide], the Ki on rat TAAR1 was determined as 0.97 µM; on mouse TAAR1 it was 0.0054 µM.

Regarding `O=C(Nc1ccc(C[C@@]23CN[C@@H](CO2)C3)cc1)c1cnc(C2CC2)nc1` [Example 51, 2-Cyclopropyl-N-[4-[[(1R,4R)-5-oxa-2-azabicyclo[2.2.1]heptan-4-yl]methyl]phenyl]pyrimidine-5-carboxamide], the values for the Ki on rat TAAR1 and on mouse TAAR1 were 0.324 µM and 0.0774 µM, respectively.

Regarding `O=C(Nc1ccc(C23CCC(CO2)NC3)cc1)c1cccc(Cl)c1` (centres unmarked) [Example 6, 3-Chloro-N-[4-(5-oxa-2-azabicyclo[2.2.2]octan-4-yl)phenyl]benzamide], the values for the Ki on rat TAAR1 and on mouse TAAR1 were 0.797 µM and 0.0044 µM, respectively.

Consider `O=C(Nc1ccc(C[C@@]23CN[C@@H](CO2)C3)cc1)Nc1ccccc1Cl` [Example 43, 1-(2-Chlorophenyl)-3-[4-[[(1R,4R)-5-oxa-2-azabicyclo[2.2.1]heptan-4-yl]methyl]phenyl]urea], for which the Ki was determined as 0.202 µM at rat TAAR1 and 0.0124 µM at mouse TAAR1.

In the case of `FC(F)(F)c1cnc(Nc2ccc(C34CCC(CO3)NC4)cc2)cn1` (racemic) [Example 64, (RS)—N-[4-(5-Oxa-2-azabicyclo[2.2.2]octan-4-yl)phenyl]-5-(trifluoromethyl)pyrazin-2-amine], the Ki on rat TAAR1 was 7.68 µM; on mouse TAAR1, 0.03 µM.

For the compound `O=C(Nc1ccc(C23CCC(CO2)NC3)cc1)c1ccc(OCC(F)(F)F)nc1` (racemic) [Example 13, (RS)—N-[4-(5-Oxa-2-azabicyclo[2.2.2]octan-4-yl)phenyl]-6-(2,2,2-trifluoroethoxy)pyridine-3-carboxamide], the Ki at rat TAAR1 came to 0.624 µM; on mouse TAAR1, 0.0304 µM.

In the case of `CCOc1ccc(C(=O)Nc2ccc(C[C@]34CN[C@H](CO3)C4)cc2)cc1` [Example 19, 4-Ethoxy-N-[4-[[(1 S,4S)-5-oxa-2-azabicyclo[2.2.1]heptan-4-yl]methyl]phenyl]benzamide], the Ki on rat TAAR1 is 0.063 µM; at mouse TAAR1, 0.334 µM.

In the case of `CCOc1ccc(C(=O)Nc2ccc(C[C@@]34CN[C@@H](CO3)C4)cc2)cn1` [Example 46, 6-Ethoxy-N-[4-[[(1R,4R)-5-oxa-2-azabicyclo[2.2.1]heptan-4-yl]methyl]phenyl]pyridine-3-carboxamide], the Ki came out at 0.448 µM on rat TAAR1 and 0.0142 µM at mouse TAAR1.

For `Clc1ccc(Nc2ccc([C@]34CN[C@H](CO3)C4)cc2)nc1` [Example 7, 5-Chloro-N-[4-[(1S,4R)-5-oxa-2-azabicyclo[2.2.1]heptan-4-yl]phenyl]pyridin-2-amine], the Ki at rat TAAR1 came out at 0.309 µM; at mouse TAAR1, 0.0414 µM.

In the case of `CCc1ncc(C(=O)Nc2ccc(C[C@@]34CN[C@@H](CO3)C4)cc2)cn1` [Example 50, 2-Ethyl-N-[4-[[(1R,4R)-5-oxa-2-azabicyclo[2.2.1]heptan-4-yl]methyl]phenyl]pyrimidine-5-carboxamide], the Ki at rat TAAR1 came out at 1.24 µM; on mouse TAAR1 it was 0.226 µM.

In the case of `O=C(Nc1ccc(C[C@]23CN[C@H](CO2)C3)cc1)c1ccc(Cl)cc1` [Example 15, 4-Chloro-N-[4-[[(1S,4S)-5-oxa-2-azabicyclo[2.2.1]heptan-4-yl]methyl]phenyl]benzamide], the Ki came to 0.0505 µM on rat TAAR1 and 0.0853 µM on mouse TAAR1.

Take `O=C(Nc1ccc(C[C@]23CN[C@H](CO2)C3)cc1)c1cccc(Cl)c1` [Example 17, 3-Chloro-N-[4-[[(1S,4S)-5-oxa-2-azabicyclo[2.2.1]heptan-4-yl]methyl]phenyl]benzamide]: the Ki amounted to 0.229 µM on rat TAAR1 and 0.112 µM on mouse TAAR1.

Turning to `FC(F)(F)c1ccc(Nc2ccc(C[C@]34CN[C@H](CO3)C4)cc2)nc1` [Example 31, N-[4-[[(1S,4S)-5-Oxa-2-azabicyclo[2.2.1]heptan-4-yl]methyl]phenyl]-5-(trifluoromethyl)pyridin-2-amine], the Ki was 0.163 µM on rat TAAR1 and 0.946 µM on mouse TAAR1.

As for `O=C(Nc1ccc(C[C@]23CN[C@H](CO2)C3)cc1)c1ccnc(C(F)(F)F)c1` [Example 18, N-[4-[[(1S,4S)-5-Oxa-2-azabicyclo[2.2.1]heptan-4-yl]methyl]phenyl]-2-(trifluoromethyl)pyridine-4-carboxamide], the Ki on rat TAAR1 came out at 0.354 µM; on mouse TAAR1, 0.238 µM.

Consider `FC(F)(F)c1nccc(Nc2ccc([C@@]34CN[C@@H](CO3)C4)cc2)n1` [Example 56, N-[4-[(1R,4S)-5-Oxa-2-azabicyclo[2.2.1]heptan-4-yl]phenyl]-2-(trifluoromethyl)pyrimidin-4-amine], for which the results for the Ki at rat TAAR1 and at mouse TAAR1 were 2.41 µM and 0.0393 µM, respectively.

Turning to `O=C(Nc1ccc(C[C@@]23CN[C@@H](CO2)C3)cc1)Nc1ccc(C(F)(F)F)cc1` [Example 22, 1-[4-[[(1R,4R)-5-Oxa-2-azabicyclo[2.2.1]heptan-4-yl]methyl]phenyl]-3-[4-(trifluoromethyl)phenyl]urea], the Ki amounted to 0.0237 µM on rat TAAR1 and 0.0126 µM on mouse TAAR1.
